From ChEMBL document CHEMBL1124048, “9-(trans-2',trans-3'-dihydroxycyclopent-4'-enyl) derivatives of adenine and 3-deazaadenine: potent inhibitors of bovine liver S-adenosylhomocysteine hydrolase” (J Med Chem, 1988)

Target: Adenosylhomocysteinase (Homo sapiens) (UniProt P23526)
Conditions: Bos taurus
Description: NAD+ content of the enzyme tetramer was measured by HPLC on a C 18 reverse-phase column

Adenosylhomocysteinase (Homo sapiens), sequence (P23526 2-432 limits assumed): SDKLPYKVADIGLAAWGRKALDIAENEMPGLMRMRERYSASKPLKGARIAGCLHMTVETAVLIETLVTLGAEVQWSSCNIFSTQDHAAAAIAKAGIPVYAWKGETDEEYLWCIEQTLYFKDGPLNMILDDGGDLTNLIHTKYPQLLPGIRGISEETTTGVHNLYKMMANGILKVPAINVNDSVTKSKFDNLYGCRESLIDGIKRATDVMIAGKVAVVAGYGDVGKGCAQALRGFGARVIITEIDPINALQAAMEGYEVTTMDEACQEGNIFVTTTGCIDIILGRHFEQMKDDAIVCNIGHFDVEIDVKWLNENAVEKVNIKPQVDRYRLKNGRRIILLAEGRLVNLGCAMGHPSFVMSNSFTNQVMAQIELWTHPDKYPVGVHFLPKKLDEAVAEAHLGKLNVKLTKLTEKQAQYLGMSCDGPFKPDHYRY

Row | SMILES | NAD content (M (M of enzyme)-1)
1 | Nc1ncnc2c1ncn2[C@@H]1C=C(CO)[C@@H](O)[C@H]1O | 0
2 | Nc1ncnc2c1ncn2[C@@H]1C=C[C@@H](O)[C@H]1O | 0.19
